Source: ChEMBL document CHEMBL3217509, “Discovery of an HIV integrase inhibitor with an excellent resistance profile” (Medchemcomm, 2013)
pIC50: −log10 of the molar value.

Columns and labels:
[1] = Intrinsic clearance in human hepatocytes assessed assessed per million of cells by LC-MS/MS analysis; assay type: ADME, cell-based, Hepatocyte; details: read-out: CLH
[2] = Intrinsic clearance in human liver microsomes assessed per mg of protein by LC-MS/MS analysis in presence of UDPGA; assay type: ADME; details: read-out: CLH
[3] = tested on: Human immunodeficiency virus 1; experiment: Antiviral activity against HIV1 NL4-3 infected in human MT2 cells after 3 days by human JC53BL cell-based beta-galactosidase reporter gene assay; assay type: functional, organism-based; details: Human immunodeficiency virus 1, NL4-3, JC53BL, 72 h
[4] = Intrinsic clearance in human liver microsomes assessed per mg of protein by LC-MS/MS analysis; assay type: ADME; details: read-out: CLH
[5] = Inhibition of DNA polymerase beta (unknown origin); parameters: species or system Homo sapiens
[6] = Inhibition of DNA polymerase alpha (unknown origin); parameters: species or system Homo sapiens

hepatocyte CLint [1] [µL/min/1e6 cells]	microsomal CLint [2] [µL/min/mg]	pIC50 [3]	microsomal CLint [4] [µL/min/mg]	Compound	pIC50 [5]	pIC50 [6]
37.7	19.7	8.41	17	COc1cc(F)ccc1Cn1ccc2c3c(ncc21)C(=O)N(O)C(C)(C)C3		
23.2	5	8.39	< 8	CCOc1cc(F)ccc1Cn1ccc2c3c(ncc21)C(=O)N(O)CC3		
				C[C@@]1(CO)[C@H](O)CC[C@@]2(C)[C@H]1CC[C@H]1C[C@@H]3C[C@@]12CC[C@]3(O)CO [APHIDICOLIN]	5.71	5.14
64.7	170	9.00		CC1(C)CN(O)C(=O)c2ncc3c(ccn3Cc3ccc(F)cc3)c21		
